In patent US10676449B2, “Electronically activated strained alkynes” (Wisconsin Alumni Research Foundation, priority 2017, dated 2020):

Columns and labels:
Type in all cases: physicochemical
[1] = strain-promoted 1,3-dipolar cycloaddition kinetics with benzyl azide (experimental second order rate constants); conditions: for k2: 1,3-dipolar cycloaddition with benzyl azide 5, acetonitrile, ambient temperatures; for krel.: reaction with benzyl azide, relative to 4b = 1.0; for change of rate of reaction with benzyl azide, in words: relative to the comparator alkyne; for Experimental Rate: CD3CN
Excerpt: The reactivity of the novel strained alkyne derivatives disclosed herein were first assessed using benzyl azide 5 as a model substrate (Table 1, model reaction at top). […] When steric hindrance was increased by placing the more bulky isopropyl group at C1, the rate of the reaction slowed to a sixth of that of […]. […] The effects of the heteroatoms in the ring were similarly pronounced. […] For Me-substituted substrates 4a and 4d, the rates slowed to roughly half their unprotected values. While a more electron-poor nitrogen heteroatom is expected to result in a stronger electronic effect and an expected increase in reaction rate, the conflicting effects of bond lengthening and steric repulsion between the Boc and R^1 groups overrides any benefit and results in a net slowing of rate. Similarly, when the homopropargylic oxygen atom was replaced with a Boc-protected nitrogen atom, the rate fell dramatically to an eighteenth of that of the sulfamate (4f). The fastest substrate, 1a, compares favorably to other reported strained alkynes. It is faster than OCT, the exocyclic heteroatom-activated MOFO, and the endocyclic heteroatom-activated alkynes reported by Toomoka et al., supra. The reaction rate of 1a is surpassed only slightly by DIFO.
With the difluorinated SNO-OCT 8a in hand, preliminary kinetic studies were carried out (Table 7) and compared to computed and experimental rates of both the parent SNO-OCTs 4 and 6, as well as 8. A rate enhancement of 13-fold was predicted in moving from the parent SNO-OCT 6 (entry 1, right column) to the difluorinated SNO-OCT 8 (entry 3, right column) in reactions with alkyl azides; this was quite similar to the experimental rate enhancement seen in moving from 4 to 8a of 18× (entries 1 and 3 in the left column).

[2] = experimental rate comparison of cycloalkynes with diazoacetamide 8 and azidoacetamide 7; conditions: ratio of rate constants with diazoacetamide and azidoacetamide
Excerpt: For these exploratory studies, diazoacetamide 8 (Table 3) and azidoacetamide 7 were chosen because of the increased nucleophilicity of 8 as compared to azide 7 and its ability to survive cellular metabolism. When comparing rate differences with diazoacetamide 8 and azidoacetamide 7 for common cycloalkynes, DIBAC reacted˜5-times faster with the diazoacetamide than the analogous azide in 1:1 CD3CN:D2O. […] At the same time, these compounds provide for complete selectivity that is as of yet lacking in cyclooctynes. It was hypothesized by the present inventors that properly positioned heteroatoms in sulfamate-derived cyclooctynes would lead to an increase in diazo-selective reactivity over azides, thus enabling orthogonal bioconjugation techniques.
The effects of the various heteroatoms on this increased chemoselectivity were investigated computationally. […] In contrast, the ΔΔG‡ is expected to increase, likely due to increased steric repulsion from the bulky Boc-group. This difference in rate provides ˜9:1 selectivity in competition experiments involving 1:1:1 mixtures of diazoacetamide […]:alkyne (4d, 4e). Efforts to improve the selectivity for reaction with 1 were undertaken by examining the effects of both propargylic and homopropargylic heteroatoms in 4.

[3] = experimental cycloaddition of SNO-OCTs with diazoacetamide; conditions: dipole diazoacetamide; CD3CN
Excerpt: A rate enhancement of ˜300-fold was predicted in moving from the parent SNO-OCT 6 (entry 2, right column) to the difluorinated SNO-OCT 8 (entry 4, right column) in reactions with alkyl diazaoacetamides. Experimentally, the rate enhancement in moving from 4 to 8a (entries 2 and 4 in the left column) could not be determined using proton NMR spectroscopy to monitor the progress of the reaction. […] While orthogonality was also observed for reactions of 4 and 8a with azides, the selectivity appeared to be lower than that predicted for the diazoalkanes.

Compound | k2 [1] [M⁻¹ s⁻¹] | krel. [1] | change of rate of reaction with benzyl azide, in words [1] | also measured
CC1C#CCCOS(=O)(=O)N1 (stereo not drawn) [4a] | 0.066 | 2.6 |  | k2 ratio, diazoacetamide:azidoacetamide ([2]; CD3CN:D2O = 1:1): 8.5; k2 ratio, diazoacetamide:azidoacetamide ([2]; in CD3CN): 3.0
CCCCCC1C#CCCOS(=O)(=O)N1 (stereo not drawn) [4b] |  | 1.0 |  | 
CC(C)C1C#CCCOS(=O)(=O)N1 (stereo not drawn) [4c] | 0.0040 | 0.16 | a sixth | 
CC1C#CCCOS(=O)(=O)N1C(=O)OC(C)(C)C (stereo not drawn) [4d] | 0.037 | 1.5 | roughly half | k2 ratio, diazoacetamide:azidoacetamide ([2]; in CD3CN): 5.0
CCCCCC1C#CCCOS(=O)(=O)N1C(=O)OC(C)(C)C (stereo not drawn) [4e] | 0.042 | 1.7 | slowed slightly | 
CC(C)C1C#CCCOS(=O)(=O)N1C(=O)OC(C)(C)C (stereo not drawn) [4f] |  |  | an eighteenth | 
CC1C#CC(C)NS(=O)(=O)OC1 (stereo not drawn) [4g] | 0.047 | 1.9 |  | 
CCCCCC1C#CCCN(C(=O)OC(C)(C)C)S(=O)(=O)N1 (stereo not drawn) [4h] | 0.0014 | 0.056 |  | 
CCC1C#CC(F)(F)COS(=O)(=O)N1 (stereo not drawn) [8a] |  |  |  | Experimental Rate ([1]; dipole Bn—N3): 0.46 M⁻¹ s⁻¹; experimental rate enhancement in moving from 4 ([1]; reactions with alkyl azides (Bn—N3)): 18 ×
CCCCCC1C#CCCOS(=O)(=O)N1 (stereo not drawn) [compound 4] |  |  |  | Experimental Rate [3]: 0.27 M⁻¹ s⁻¹
[N-]=[N+]=NCc1ccccc1 [compound 5] |  |  |  | Experimental Rate (value in parentheses) ([1]; dipole Bn—N3, 2:1 D2O:CD3CN): 0.13 M⁻¹ s⁻¹; Experimental Rate ([1]; dipole Bn—N3): 0.087 M⁻¹ s⁻¹
dibenzoazacyclooctyne [DIBAC, reference compound] |  |  |  | k2 ratio, diazoacetamide:azidoacetamide ([2]; CD3CN:D2O = 1:1): 6.5; k2 ratio, diazoacetamide:azidoacetamide ([2]; in CD3CN): 2.0
